{"source": "patent US20240197756A1", "about": "“METHODS OF TREATMENT WITH NEUROACTIVE STEROIDS” (priority 2021, published 2024)", "key": {"[1]": {"experiment": "Example 3 Part A: oral suspension administered at 4 p.m. vs 8 p.m., plasma pharmacokinetics", "format": "in vivo, human", "settings": "for AUCinf / Cmax / AUC(0-inf) / Tmax / half-life: human, in vivo; for AUCinf / Cmax / AUC(0-inf) / Tmax: po; for AUC(0-inf): AUCinf", "procedure": "Patients with severe major depressive disorder (MDD) aged 18 to 65 years were treated with an oral suspension or tablet of Compound 1 to study the effect of food and time of administration on the pharmacokinetics, as well as the safety and tolerability of these formulations.\nPart A is an open-label, non-randomized, fixed-sequence crossover design to evaluate Compound 1 at 2 different administration times (4 p.m., approximately 4 hours after lunch and 2 hours prior to dinner, and at 8 p.m., approximately 4 hours after dinner). 16 participants were administered an oral suspension of Compound 1.\nPreliminary pharmacokinetics data from Part A, where 45 mg and 60 mg of oral suspension were administered (Cohort 1), and Part C, where 40 mg (2×20 mg), 60 mg (3×20 mg) and 80 mg (4×20 mg) of the tablet formulation were administered, have been analyzed and are summarized below."}, "harmaline-induced tremor": {"tested_on": "harmaline-induced tremor", "experiment": "Rat Harmaline Induced Tremor (rHIT) model", "format": "in vivo", "settings": "0.3, 1, 3, 10 mg/kg i.p., 30 min before harmaline 30 mg/kg i.p. (FIG. 9)", "source_text": "A rat model of tremor (Rat Harmaline Induced Tremor; rHIT) was used to assess the impact of Compound 1 on reducing the symptoms of tremor. Male SD rats (SLAC, Shanghai, China) having a body weight of about 250 g at the time of testing were fed ad libitum and kept in a 12:12 light-dark cycle room, with the lights on from 5 a.m. to 5 p.m, throughout the study. Rats were allowed to acclimate to standard laboratory conditions for at least 5-7 days prior to the experiment.\nOne day prior to testing, a naive rat was placed in the testing chamber, which was a plexiglass chamber with a piezoelectric plate attached at the bottom to transduce tremor behavior into an electrical signal. The rat was placed in the chamber in order to adjust the spontaneous activity baseline signal. […]\nNext, at T=0 minutes, all groups were intraperitoneally administered 30 mg/kg (5 mL/kg) of harmaline formulated in a saline vehicle. The post-harmaline effect was measured for twenty minutes (T=10 to 30 minutes). […]\nPiezoelectric plate signal analysis: For the power spectral density analysis, electrical tremor signal was processed with fast Fourier transform (FFT) at a resolution of 0.5 Hz bins. […] The average maximum power density across the 8-13 Hz band in 0.5 Hz bins was also calculated. […]"}, "[2]": {"experiment": "Multiple escalating dose study, plasma pharmacokinetics of oral suspension (Cohorts 1-3)", "format": "in vivo, human", "description": "Healthy subjects aged 18 to 55 years were treated with an oral suspension of Compound 1 to study the safety, tolerability, pharmacokinetics and pharmacodynamics of Compound 1 in healthy subjects.\nThe study was a randomized, double-blind, placebo-controlled multiple escalating dose study comprised of 3 cohorts that each received an oral suspension. Each cohort consisted of two groups: one group treated with Compound 1 and another treated with placebo. In each cohort, the ratio of Compound 1-treated subjects to placebo-treated subjects was 3:1.\nThe Compound 1-treated subjects of Cohort 1 were treated with 15.0 mg of Compound 1 once per day (QD). The Compound 1-treated subjects of Cohort 2 were treated with 30.0 mg of Compound 1 QD. The Compound 1-treated subjects of Cohort 3 were treated with 60.0 mg of Compound 1 QD.\nPatients in each cohort were treated with Compound 1 for 14 consecutive days, unless dosing was halted by the Safety Review Committee (SRC). The dosing of subjects in each of the cohorts was staggered with the decision to dose escalate based on SRC review of a minimum of 14 days of observation of safety and tolerability data and review of the available plasma PK data from the preceding cohort(s). Thus, dose escalation was predicated on tolerability of the prior cohorts.\nCompound 1 was administered under fasted conditions (no food or drink, except water, for at least 10 hours prior to dosing). Immediately after administration of Compound 1, the subject was be administered 240 mL water. No additional fluid intake was allowed until 1 hour after Compound 1 administration.\nCohort 1 subjects received a single 15.0 mg dose of a Compound 1 suspension on the morning of Days 1-14. Cohort 2 subjects received a single 30.0 mg dose of a Compound 1 suspension on the morning of Days 1-14. Cohort 3 subjects received a single 60.0 mg dose of a Compound 1 suspension on the morning of Days 1-14. For all cohorts, the last treatment was administered on the morning of Day 14.\nData were obtained from the blood plasma samples collected from each cohort according to the schedule provided.\nPlasma samples were analyzed to determine Compound 1 concentrations using a validated assay method. Pharmacokinetic variables (including but not limited to Cmax, Tmax and AUC(0-last)) were calculated using non-compartmental analysis. PK parameters for Compound 1 were derived from the plasma concentration data using non-compartmental analysis with Phoenix™ WinNonlin® v 8.0 (Pharsight Corporation, USA).\nBlood (Cohorts 1-3): For each cohort, blood samples were collected on Days 1, 2, 3, 4, 5, 6 and 14 at the following time points: Day 1 at pre-dose (0 hour), 0.25, 0.5, 0.75, 1, 1.5, 2, 2.5, 3, 4, 6, 8, 12, 16 h post-dose; Day 2 at pre-dose (24 hours), Day 3 at pre-dose (48 hours), Day 4 at pre-dose (72 hours), Day 5 at pre-dose (96 hours), Day 6 at pre-dose (120 hours); Day 14 at pre-dose 0.25, 0.5, 0.75, 1, 1.5, 2, 2.5, 3, 4, 6, 8, 12, 16, 24, 36, 48, and 72 hours. Trough level blood samples were collected on Days 2, 3, 4, 5, 6 and 14, prior to the morning dose administrations.\nDescriptive statistics were calculated for plasma and urine PK parameter and concentration data and summarized by study day and time point. Arithmetic means, coefficient of variation (CV), standard deviation, median, minimum, and maximum values, and number of observations were calculated for all PK parameters and trough concentration data. Except for Tmax, the geometric mean, geometric standard deviation, and geometric CV were provided for all PK parameter and concentration data."}, "[3]": {"settings": "oral suspension 45 mg and 60 mg"}, "[4]": {"settings": "Cohort 1 (15.0 mg QD), Day 14 steady state, Geo Mean"}, "[5]": {"settings": "Cohort 1 (15.0 mg QD), Day 14 steady state, Mean"}, "[6]": {"settings": "Cohort 1 (15.0 mg QD), Day 14 steady state, Median"}, "[7]": {"settings": "Cohort 2 (30.0 mg QD), Day 14 steady state, Geo Mean"}, "[8]": {"settings": "Cohort 2 (30.0 mg QD), Day 14 steady state, Mean"}, "[9]": {"settings": "Cohort 3 (60.0 mg QD), Day 14 steady state, Geo Mean"}}, "note": "“Also recorded” adds a separate entry of the source. Read-outs that look alike come from different tables or passages of the source."}
{"smiles": "COC[C@@]1(O)CC[C@@]2(C)[C@@H](CC[C@@H]3[C@@H]2CC[C@]2(C)[C@@H](C(=O)Cn4ccnc4)CC[C@@H]32)C1", "note": "[Compound 1, 3α-Hydroxy-3β-methoxymethyl-21-(1′-imidazolyl)-5α-pregnan-20-one]", "values": [{"measurement": "AUCinf", "setting": "[1]; 45 mg", "result": 1880, "unit": "ng·h/mL"}, {"measurement": "Cmax", "setting": "[1]; 45 mg", "result": 157, "unit": "ng/mL"}, {"measurement": "AUC(0-inf)", "setting": "[1]; 45 mg", "result": 1800, "unit": "ng·h/mL"}, {"measurement": "Cmax", "setting": "[1]; 45 mg, Cmax", "result": 207, "unit": "ng/mL"}, {"measurement": "Tmax", "setting": "[1]; 45 mg", "result": 1.5, "unit": "h"}, {"measurement": "AUCinf", "setting": "[1]; 60 mg", "result": 2930, "unit": "ng·h/mL"}, {"measurement": "Cmax", "setting": "[1]; 60 mg", "result": 249, "unit": "ng/mL"}, {"measurement": "AUC(0-inf)", "setting": "[1]; 60 mg", "result": 2800, "unit": "ng·h/mL"}, {"measurement": "Cmax", "setting": "[1]; 60 mg, Cmax", "result": 282, "unit": "ng/mL"}, {"measurement": "Tmax", "setting": "[1]; 60 mg", "result": 1.5, "unit": "h"}, {"measurement": "half-life", "setting": "[1]; oral suspension 45 mg and 60 mg, 4 p.m. and 8 p.m., range, read-out: Mean t1/2", "result": "11.1 to 12.6", "unit": "h"}, {"measurement": "half-life", "setting": "[1]; oral suspension 60 mg 4 PM (4 h after lunch, 2 h before dinner), N = 15, Mean, read-out: t1/2 (converted)", "result": 12, "unit": "h"}, {"measurement": "t1/2", "setting": "[1]; oral suspension 45 mg 4 PM (4 h after lunch, 2 h before dinner), N = 16, Mean", "result": 12.6, "unit": "h"}, {"measurement": "t1/2", "setting": "[1]; oral suspension 45 mg 8 PM (4 h after dinner), N = 15, Mean", "result": 11.3, "unit": "h"}, {"measurement": "Cmax at 8 p.m. as compared to 4 p.m.", "setting": "[1]; [3]", "result": "reduced"}, {"measurement": "tmax at 8 p.m. as compared to 4 p.m.", "setting": "[1]; [3]", "result": "delayed"}, {"measurement": "AUCinf between the 2 administration times", "setting": "[1]; oral suspension 45 mg and 60 mg, 4 p.m. vs 8 p.m.", "result": "comparable"}, {"measurement": "t1/2", "setting": "[1]; oral suspension 60 mg 8 PM (4 h after dinner), N = 15, Mean", "result": 11.1, "unit": "h"}, {"measurement": "first post-dose timepoint with appearance of concentrations", "setting": "[1]; suspension at 4 p.m. or 8 p.m.", "result": 0.25, "unit": "h"}, {"measurement": "last evaluated timepoint at which concentrations remained detectable", "setting": "[1]; suspension at 4 p.m. or 8 p.m.", "result": 72, "unit": "h"}, {"measurement": "mean concentrations following administration at 4 p.m. as compared to 8 p.m.", "setting": "[1]; within the first 2 to 3 hours, 45 mg and 60 mg", "result": "higher"}, {"measurement": "inhibition of harmaline-induced tremor", "setting": "harmaline-induced tremor", "result": "dose-dependently inhibits; also recorded: dose dependent inhibition"}, {"measurement": "accumulation factor of the dosing interval (ratio of AUCDay14/AUCDay1)", "setting": "[2]; Cohort 1 (15 mg QD) and Cohort 2 (30 mg QD)", "result": "approximately 1.25"}, {"measurement": "CLss/F", "setting": "[2]; [4]", "result": 30.497, "unit": "L/h"}, {"measurement": "t1/2", "setting": "[2]; [4]", "result": 14.613, "unit": "h"}, {"measurement": "CLss/F", "setting": "[2]; [5]", "result": 31.415, "unit": "L/h"}, {"measurement": "t1/2", "setting": "[2]; [5]", "result": 14.772, "unit": "h"}, {"measurement": "AUCinf", "setting": "[2]; [6]", "result": 595.2, "unit": "ng·h/mL"}, {"measurement": "CLss/F", "setting": "[2]; [6]", "result": 30.41, "unit": "L/h"}, {"measurement": "CLss/F", "setting": "[2]; [7]", "result": 30.178, "unit": "L/h"}, {"measurement": "t1/2", "setting": "[2]; [7]", "result": 12.647, "unit": "h"}, {"measurement": "CLss/F", "setting": "[2]; [8]", "result": 30.949, "unit": "L/h"}, {"measurement": "t1/2", "setting": "[2]; [8]", "result": 12.701, "unit": "h"}, {"measurement": "CLss/F", "setting": "[2]; Cohort 2 (30.0 mg QD), Day 14 steady state, Median", "result": 30.12, "unit": "L/h"}, {"measurement": "accumulation factor of the dosing interval (ratio of AUCDay14/AUCDay1)", "setting": "[2]; Cohort 3 (60 mg QD)", "result": 0.89}, {"measurement": "CLss/F", "setting": "[2]; [9]", "result": 30.398, "unit": "L/h"}, {"measurement": "t1/2", "setting": "[2]; [9]", "result": 12.164, "unit": "h"}, {"measurement": "CLss/F", "setting": "[2]; Cohort 3 (60.0 mg QD), Day 14 steady state, Mean", "result": 32.142, "unit": "L/h"}, {"measurement": "CLss/F", "setting": "[2]; Cohort 3 (60.0 mg QD), Day 14 steady state, Median", "result": 28.45, "unit": "L/h"}, {"measurement": "AUC0-tau", "setting": "[2]; human, in vivo, 60 mg", "result": 2356.80, "unit": "ng·h/mL"}, {"measurement": "steady state clearance", "setting": "[2]; human, in vivo, 60 mg", "result": "approximately 31 L/hour"}, {"measurement": "absorption", "setting": "[2]; in vivo, po", "result": "rapid absorption"}]}
